Converted amounts (≈) assume the structure as drawn. Where two headings read alike, the source gives them in different places.
Tests used:
Type in all cases: cell-based
[1] = test system: Klebsiella pneumoniae; assay: MIC with/without sub-MIC colistin, Klebsiella pneumoniae
Method: (§1) The MIC of the rhodanines and control antibiotics, in the presence of a sub-inhibitory concentration of colistin or polymixin B nonapeptide (PMBN), against Gram-negative bacteria was evaluated as described before. The antibacterial activity of the rhodanines was further investigated against E. coli SM1411Δ acrAB, a strain that is deficient in the multidrug-resistant AcrAB efflux pump, as described before.

[2] = test system: Acinetobacter baumannii; assay: MIC with/without sub-MIC colistin, Acinetobacter baumannii
Method: as §1

[3] = test system: Escherichia coli Δ acrAB; assay: MIC against E. coli 1411 and AcrAB efflux pump deficient E. coli SM1411Δ acrAB
Method: as §1

[4] = test system: Mycobacterium smegmatis; assay: Broth microdilution MIC/MBC, Mycobacterium smegmatis; details: Mycolicibacterium smegmatis, ATCC14468, M. Smegmatis ATCC 14468
[5] = test system: methicillin-resistant Staphylococcus aureus (MRSA); assay: Broth microdilution MIC/MBC, MRSA
[6] = test system: B. cereus; assay: Broth microdilution MIC/MBC, B. cereus; details: Bacillus cereus; for MBC: read-out: MBC; for MIC: read-out: MIC
Text: The broth microdilution technique was used, followed by subculturing on agar plates that were rhodanine—free.

[7] = test system: Vancomycin Resistant Staphylococcus aureus (VRSA); assay: Broth microdilution MIC/MBC, VRSA; details: for MBC / MIC: VRSA
[8] = test system: Acinetobacter baumannii; assay: Broth microdilution MIC, Acinetobacter baumannii
[9] = test system: vancomycin resistant enterococci (VRE) E. faecalis; assay: Broth microdilution MIC/MBC, VRE E. faecalis; details: for MIC: read-out: MIC
[10] = test system: vancomycin resistant enterococci (VRE) E. faecium; assay: Broth microdilution MIC/MBC, VRE E. faecium; details: for MIC: read-out: MIC
[11] = NRS201, B. cereus NRS 201 NR-2488
[12] = E. faecalis NR31972 Strain SF 28073
[13] = E. faecium HM 968 Strain ERV102
[14] = E. faecium NR31914 Strain E0120
[15] = E. faecium Patient #1–1 NR-31903

With `O=C(O)[C@H](Cc1ccccc1)N1C(=O)/C(=C/c2cccc(Cc3ccc(Cl)c(Cl)c3)c2)SC1=S` [Rh 3] the MIC ([1]; Klebsiella pneumoniae ATCC BAA 2146, colistin (+) […]) was >64 µM, the MIC ([1]; Klebsiella pneumoniae, BAA2146) was > 128 µM and the MIC ([2]; Acinetobacter baumannii ATCC BAA747, colistin (+) […], read-out: MIC) was >64 µM. For the same compound, the MIC ([2]; Acinetobacter baumannii ATCC BAA19606, colistin (+) […], read-out: MIC) was >64 µM, the MIC ([2]; Acinetobacter baumannii, ATCCBAA747) was > 128 µM and the MIC ([2]; Acinetobacter baumannii, ATCCBAA19606) was > 128 µM. For the same compound, the MIC ([3]; E.coli 1411) was > 64 µM, the MIC ([3]; E.coli 1411 SM (Δ acrAB, AcrAB efflux pump deficient)) was > 64 µM and the MBC ([4]; read-out: MBC) was 8 µM (≈ 4.23 µg/mL). The MIC ([4]; read-out: MIC) was 4 µM (≈ 2.11 µg/mL), the MIC50 ([5]; 11 MRSA strains) was 8 µM (≈ 4.23 µg/mL) and the MIC90 ([5]; 11 MRSA strains) was 16 µM (≈ 8.46 µg/mL). For the same compound, the MBC ([5]; MRSA NRS 1) was 8 µM (≈ 4.23 µg/mL), the MIC ([5]; MRSA NRS 1) was 8 µM (≈ 4.23 µg/mL) and the MBC ([5]; MRSA NRS 19) was 8 µM (≈ 4.23 µg/mL). For the same compound, the MIC ([5]; MRSA NRS 19) was 8 µM (≈ 4.23 µg/mL), the MBC ([5]; MRSA NRS 37) was 16 µM (≈ 8.46 µg/mL) and the MIC ([5]; MRSA NRS 37) was 8 µM (≈ 4.23 µg/mL). For the same compound, the MBC ([5]; MRSA NRS 107) was 32 µM (≈ 16.9 µg/mL), the MIC ([5]; MRSA NRS 107) was 8 µM (≈ 4.23 µg/mL) and the MBC ([5]; MRSA NRS 119) was 8 µM (≈ 4.23 µg/mL). The MIC ([5]; MRSA NRS 119) was 8 µM (≈ 4.23 µg/mL), the MBC ([5]; MRSA NRS 382) was 32 µM (≈ 16.9 µg/mL) and the MIC ([5]; MRSA NRS 382) was 16 µM (≈ 8.46 µg/mL). For the same compound, the MBC ([5]; MRSA NRS 383) was 8 µM (≈ 4.23 µg/mL), the MIC ([5]; MRSA NRS 383) was 8 µM (≈ 4.23 µg/mL) and the MBC ([5]; MRSA NRS 384) was 16 µM (≈ 8.46 µg/mL). The MIC ([5]; MRSA NRS 384) was 16 µM (≈ 8.46 µg/mL), the MBC ([5]; MRSA NRS 385) was 16 µM (≈ 8.46 µg/mL) and the MIC ([5]; MRSA NRS 385) was 16 µM (≈ 8.46 µg/mL). The MBC ([5]; MRSA NRS 386) was 32 µM (≈ 16.9 µg/mL), the MIC ([5]; MRSA NRS 386) was 8 µM (≈ 4.23 µg/mL) and the MBC ([5]; MRSA NRS 387) was 32 µM (≈ 16.9 µg/mL). The MIC ([5]; MRSA NRS 387) was 16 µM (≈ 8.46 µg/mL), the MBC ([6]; B. cereus BAG1O-2 NR-28582) was 4 µM (≈ 2.11 µg/mL) and the MIC ([6]; B. cereus BAG1O-2 NR-28582) was 4 µM (≈ 2.11 µg/mL). For the same compound, the MBC ([6]; B. cereus BAG1X1-1 NR-28575) was 2 µM (≈ 1.06 µg/mL), the MIC ([6]; B. cereus BAG1X1-1 NR-28575) was 2 µM (≈ 1.06 µg/mL) and the MBC ([6]; B. cereus BAG1X2-1 NR-28578) was 4 µM (≈ 2.11 µg/mL). The MIC ([6]; B. cereus BAG1X2-1 NR-28578) was 4 µM (≈ 2.11 µg/mL), the MBC ([6]; B. cereus G9241 NR-9564) was 4 µM (≈ 2.11 µg/mL) and the MIC ([6]; B. cereus G9241 NR-9564) was 4 µM (≈ 2.11 µg/mL). The MBC ([6]; B. cereus VD014 NR-22141) was 4 µM (≈ 2.11 µg/mL), the MIC ([6]; B. cereus VD014 NR-22141) was 4 µM (≈ 2.11 µg/mL) and the MBC ([6]; B. cereus VD115 NR-22148) was 4 µM (≈ 2.11 µg/mL). For the same compound, the MIC ([6]; B. cereus VD115 NR-22148) was 4 µM (≈ 2.11 µg/mL), the MBC ([6]; B. cereus VD148 NR-22150) was 8 µM (≈ 4.23 µg/mL) and the MIC ([6]; B. cereus VD148 NR-22150) was 8 µM (≈ 4.23 µg/mL). For the same compound, the MBC [6, 11] was 4 µM (≈ 2.11 µg/mL), the MIC [6, 11] was 4 µM (≈ 2.11 µg/mL) and the MIC50 ([7]; 15 VRSA strains, read-out: MIC 50) was 8 µM (≈ 4.23 µg/mL). The MIC90 ([7]; 15 VRSA strains, read-out: MIC 90) was 8 µM (≈ 4.23 µg/mL), the MBC ([7]; VRSA 1, read-out: MBC) was 32 µM (≈ 16.9 µg/mL) and the MIC ([7]; VRSA 1, read-out: MIC) was 8 µM (≈ 4.23 µg/mL). It also gave an MBC ([7]; VRSA 2, read-out: MBC) of 16 µM (≈ 8.46 µg/mL), an MIC ([7]; VRSA 2, read-out: MIC) of 8 µM (≈ 4.23 µg/mL) and an MBC ([7]; VRSA 3a, read-out: MBC) of 16 µM (≈ 8.46 µg/mL). For the same compound, the MIC ([7]; VRSA 3a, read-out: MIC) was 16 µM (≈ 8.46 µg/mL), the MBC ([7]; VRSA 3b, read-out: MBC) was 8 µM (≈ 4.23 µg/mL) and the MIC ([7]; VRSA 3b, read-out: MIC) was 8 µM (≈ 4.23 µg/mL). It also gave an MBC ([7]; VRSA 4, read-out: MBC) of 32 µM (≈ 16.9 µg/mL), an MIC ([7]; VRSA 4, read-out: MIC) of 8 µM (≈ 4.23 µg/mL) and an MBC ([7]; VRSA 5, read-out: MBC) of 64 µM (≈ 33.8 µg/mL). The MIC ([7]; VRSA 5, read-out: MIC) was 8 µM (≈ 4.23 µg/mL), the MBC ([7]; VRSA 6, read-out: MBC) was 16 µM (≈ 8.46 µg/mL) and the MIC ([7]; VRSA 6, read-out: MIC) was 8 µM (≈ 4.23 µg/mL). The MBC ([7]; VRSA 7, read-out: MBC) was 32 µM (≈ 16.9 µg/mL), the MIC ([7]; VRSA 7, read-out: MIC) was 8 µM (≈ 4.23 µg/mL) and the MBC ([7]; VRSA 8, read-out: MBC) was 16 µM (≈ 8.46 µg/mL). For the same compound, the MIC ([7]; VRSA 8, read-out: MIC) was 8 µM (≈ 4.23 µg/mL), the MBC ([7]; VRSA 9, read-out: MBC) was 16 µM (≈ 8.46 µg/mL) and the MIC ([7]; VRSA 9, read-out: MIC) was 8 µM (≈ 4.23 µg/mL). For the same compound, the MBC ([7]; VRSA 10, read-out: MBC) was 64 µM (≈ 33.8 µg/mL), the MIC ([7]; VRSA 10, read-out: MIC) was 8 µM (≈ 4.23 µg/mL) and the MBC ([7]; VRSA 11a, read-out: MBC) was 16 µM (≈ 8.46 µg/mL). For the same compound, the MIC ([7]; VRSA 11a, read-out: MIC) was 8 µM (≈ 4.23 µg/mL), the MBC ([7]; VRSA 11b, read-out: MBC) was 16 µM (≈ 8.46 µg/mL) and the MIC ([7]; VRSA 11b, read-out: MIC) was 8 µM (≈ 4.23 µg/mL). For the same compound, the MBC ([7]; VRSA 12, read-out: MBC) was 32 µM (≈ 16.9 µg/mL), the MIC ([7]; VRSA 12, read-out: MIC) was 8 µM (≈ 4.23 µg/mL) and the MBC ([7]; VRSA 13, read-out: MBC) was 32 µM (≈ 16.9 µg/mL). The MIC ([7]; VRSA 13, read-out: MIC) was 8 µM (≈ 4.23 µg/mL), the MIC ([8]; ATCC13345) was > 128 µM and the MIC ([8]; ATCC17786) was > 128 µM. The MBC ([9]; E. faecalis ERV103 HM-934) was 8 µM (≈ 4.23 µg/mL), the MIC ([9]; E. faecalis ERV103 HM-934) was 4 µM (≈ 2.11 µg/mL) and the MBC [9, 12] was 64 µM (≈ 33.8 µg/mL). For the same compound, the MIC [9, 12] was 4 µM (≈ 2.11 µg/mL), the MBC ([9]; E. faecalis R712 HM-335) was 4 µM (≈ 2.11 µg/mL) and the MIC ([9]; E. faecalis R712 HM-335) was 4 µM (≈ 2.11 µg/mL). The MBC ([9]; E. faecalis S613 HM-334) was 8 µM (≈ 4.23 µg/mL), the MIC ([9]; E. faecalis S613 HM-334) was 4 µM (≈ 2.11 µg/mL) and the MBC ([9]; E. faecalis TX0104 HM-201) was 8 µM (≈ 4.23 µg/mL). It also gave an MIC ([9]; E. faecalis TX0104 HM-201) of 4 µM (≈ 2.11 µg/mL), an MBC ([10]; E. faecium E417 HM-965) of 64 µM (≈ 33.8 µg/mL) and an MIC ([10]; E. faecium E417 HM-965) of 4 µM (≈ 2.11 µg/mL). For the same compound, the MBC ([10]; E. faecium E1071 NR-28978) was > 64 µM, the MIC ([10]; E. faecium E1071 NR-28978) was 8 µM (≈ 4.23 µg/mL) and the MBC [10, 13] was 64 µM (≈ 33.8 µg/mL). For the same compound, the MIC [10, 13] was 4 µM (≈ 2.11 µg/mL), the MBC [10, 14] was 64 µM (≈ 33.8 µg/mL) and the MIC [10, 14] was 8 µM (≈ 4.23 µg/mL). For the same compound, the MBC [10, 15] was 64 µM (≈ 33.8 µg/mL) and the MIC [10, 15] was 4 µM (≈ 2.11 µg/mL).

Source: article PMC5053523, “In Vitro Antibacterial Activity of Rhodanine Derivatives against Pathogenic Clinical Isolates” (PLoS ONE, 2016)
